From ChEMBL document CHEMBL1127596, “Leukotriene B4 (LTB4) receptor antagonists: a series of (hydroxyphenyl)pyrazoles” (J Med Chem, 1994)

These compounds were tested against Leukotriene B4 receptor 1 (Homo sapiens, UniProt Q15722) (assay: Inhibition of [3H]Leukotriene B4 binding to human PMN).
Chain of Leukotriene B4 receptor 1 (Q15722 whole entry): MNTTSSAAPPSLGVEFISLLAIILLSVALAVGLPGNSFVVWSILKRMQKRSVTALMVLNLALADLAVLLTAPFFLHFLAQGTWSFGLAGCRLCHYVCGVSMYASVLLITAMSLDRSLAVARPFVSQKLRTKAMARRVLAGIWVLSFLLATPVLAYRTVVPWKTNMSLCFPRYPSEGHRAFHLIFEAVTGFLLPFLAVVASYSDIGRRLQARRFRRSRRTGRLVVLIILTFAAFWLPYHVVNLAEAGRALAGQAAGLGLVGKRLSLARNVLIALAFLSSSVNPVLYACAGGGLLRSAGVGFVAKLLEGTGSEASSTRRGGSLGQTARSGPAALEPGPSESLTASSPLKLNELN

Compound | IC50 [nM]
CCc1cc(-c2cc[nH]n2)c(O)cc1OCCCCCOc1ccc(CC(=O)O)cc1 | 55
O=C(O)CCc1cccc(OCCCOc2ccc(-c3cc[nH]n3)cc2)c1 | > 1000
CCc1cc(-c2cc[nH]n2)c(O)cc1OCCCOc1ccccc1CC(=O)O | 12
CCc1cc(-c2ccn(C)n2)c(O)cc1OCCCCCC(C)(C)c1nnn[nH]1 | 9.3
CCc1cc(-c2cc[nH]n2)c(O)cc1OCCCOc1ccc(CCC(=O)O)cc1 | 87
CCCc1ccc(CCC(=O)O)cc1OCCCOc1cc(O)c(-c2cc[nH]n2)cc1CC | 738
CCc1cc(-c2cc[nH]n2)c(O)cc1OCCCOc1cccc(CC(=O)O)c1 | 11
CCCc1c(OCCCOc2cc(O)c(C(=O)/C=C/N(C)C)cc2CC)ccc2c1OC(C(=O)O)CC2 (stereo not given) | 319
CCc1cc(-c2ccnn2C)c(O)cc1OCCCCCC(C)(C)c1nnn[nH]1 | 107
CCCc1c(CCC(=O)O)cccc1OCCCOc1cc(O)c(-c2cc[nH]n2)cc1CC | 834
CCc1cc(-c2cc[nH]n2)c(O)cc1OCCCOc1cccc(CCC(=O)O)c1 | 5.7
CCCc1c(OCCCOc2cc(O)c(-c3cc[nH]n3)cc2CC)ccc2c1OC(C(=O)O)CC2 (stereo not given) | 4.5
CCc1cc(-c2cc[nH]n2)c(O)cc1OCCCCCOc1ccc(C(=O)O)cc1 | 82
CCc1cc(-c2cc[nH]n2)c(O)cc1OCCCCCOc1ccc(CCC(=O)O)cc1 | 28
CCc1cc(-c2ccn[nH]2)c(O)cc1OCCCOc1ccc(CC(=O)O)cc1 | 54
